Article PMC9395488, “First-in-human study of IM156, a novel potent biguanide oxidative phosphorylation (OXPHOS) inhibitor, in patients with advanced solid tumors” (Investigational New Drugs, 2022)

System: patients with advanced solid tumors
Test: First-in-human phase 1 dose-escalation study: safety, DLTs, adverse events
Assay type: in vivo
Description: This multicenter first-in-human dose-escalation phase 1 study (clinicaltrials.gov identifier: NCT03272256) was designed to determine the MTD or RP2D and to evaluate the safety and tolerability of IM156. Secondary endpoints included PK characteristics, efficacy assessment (objective response rate [ORR], disease control rate [DCR], duration of response [DoR] and progression-free survival [PFS]). Furthermore, exploratory objectives included identification and profiling of IM156 metabolites, evaluations of exploratory PD markers of IM156, and evaluations of any potential relationship between putative biomarkers and safety/efficacy parameters of IM156. The study was conducted in accordance with Good Clinical Practice, the International Council for Harmonisation, and guidelines governing clinical study conduct and the ethical principles originating from the Declaration of Helsinki. The study was approved by each Institutional Review Board and patients provided written informed consent. Patients were enrolled at three sites in South Korea.
The initial dose and schedule of IM156 was chosen based on animal toxicology studies. […] IM156 was administered in the fasted state, with no food for at least 2 h before and 1 h after dosing.
Three DLT-evaluable patients were enrolled at each dose level. If there were no DLTs or other prohibitive adverse events (AEs), the Safety Committee was allowed to recommend escalation to the next highest dose level. If 1 DLT occurred in the first 3 DLT-evaluable patients, enrollment in that cohort was expanded to an additional 3 DLT-evaluable patients; if ≥ 2 DLTs were reported in a cohort, that dose was considered above the MTD.
Safety was assessed through vital signs, weight, laboratory assessments, physical examinations, electrocardiogram, and reporting of AEs as graded by the National Cancer Institute’s Common Terminology Criteria for Adverse Events v4.03 (NCI-CTCAE).
DLTs were defined as the following AEs if they were attributed as related to IM156: asymptomatic grade 4 neutropenia lasting for ≥ 5 days; febrile neutropenia, regardless of grade; grade 4 thrombocytopenia or grade 3 thrombocytopenia with bleeding; any grade ≥ 3 non-hematologic AE (except grade 3 hypertension and grade 3 nausea, vomiting or diarrhea for which proper measures for prevention and treatment were not implemented, and alopecia); blood lactate levels > 5 mmol; grade ≥ 2 AE prohibiting dosing of IM156 for ≥ 21 continuous days except for alterations in serum calcium or phosphorus levels. The safety analysis includes all patients who received at least one dose of study drug.
The safety population was defined as all patients who received at least one dose of IM156. The PK population was not defined in the protocol but included all patients with sufficient PK data to perform adequate PK modeling. The efficacy population included all patients who underwent at least one tumor imaging assessment while receiving IM156. Safety was assessed using descriptive statistics (e.g., DLTs, AEs, laboratory tests, physical examination, 12-lead ECG). The incidence and number of events were reported for the DLTs observed in Cycle 1 per dose group. […] Adverse events and TRAEs were standardized with the System Organ Class and the Preferred Term using the Medical Dictionary for Regulatory Activities v23.0. In addition, TEAEs, serious adverse events (SAEs), TEAE severity, and TEAEs leading to withdrawal were presented by dose group. Efficacy data were to be presented by Waterfall and Swim Lane plots. Time to event endpoints (e.g., DoR, PFS) were determined using Kaplan–Meier estimations with the median value for each endpoint summarized.

NC(=Nc1ccc(OC(F)(F)F)cc1)N=C(N)N1CCCC1 [IM156]
TEAE Pain in extremity grade 4 (DL6 800 mg orally daily (n=3)): 0 | TEAE Pruritus grade 1 (DL6 800 mg orally daily (n=3)): 0 | TEAE Pruritus grade 2 (DL6 800 mg orally daily (n=3)): 0 | TEAE Pruritus grade 3 (DL6 800 mg orally daily (n=3)): 0 | TEAE Pruritus grade 4 (DL6 800 mg orally daily (n=3)): 0 | TEAE Psychiatric disorders grade 1 (DL6 800 mg orally daily (n=3)): 1 | TEAE Psychiatric disorders grade 2 (DL6 800 mg orally daily (n=3)): 0 | TEAE Psychiatric disorders grade 3 (DL6 800 mg orally daily (n=3)): 0 | TEAE Psychiatric disorders grade 4 (DL6 800 mg orally daily (n=3)): 0 | TEAE Purpura grade 1 (DL6 800 mg orally daily (n=3)): 0 | TEAE Purpura grade 2 (DL6 800 mg orally daily (n=3)): 0 | TEAE Purpura grade 3 (DL6 800 mg orally daily (n=3)): 0 | TEAE Purpura grade 4 (DL6 800 mg orally daily (n=3)): 0 | TEAE Urinary retention grade 1 (DL6 800 mg orally daily (n=3)): 0 | TEAE Urinary retention grade 2 (DL6 800 mg orally daily (n=3)): 0 | TEAE Urinary retention grade 3 (DL6 800 mg orally daily (n=3)): 0 | TEAE Urinary retention grade 4 (DL6 800 mg orally daily (n=3)): 0 | TEAE Urinary tract disorder grade 1 (DL6 800 mg orally daily (n=3)): 0 | TEAE Urinary tract disorder grade 2 (DL6 800 mg orally daily (n=3)): 0 | TEAE Urinary tract disorder grade 3 (DL6 800 mg orally daily (n=3)): 0 | TEAE Urinary tract disorder grade 4 (DL6 800 mg orally daily (n=3)): 0 | TEAE Abdominal pain, grade 2 (DL7 1200 mg QD (n=4)): 2 | TEAE Akathisia, grade 2 (DL7 1200 mg QD (n=4)): 1 | TEAE Alanine aminotransferase increased, grade 1 (DL7 1200 mg QD (n=4)): 1 | TEAE Aspartate aminotransferase increased, grade 1 (DL7 1200 mg QD (n=4)): 1 | TEAE Blood creatinine increased, grade 1 (DL7 1200 mg QD (n=4)): 2 | TEAE Blood lactic acid increased, grade 1 (DL7 1200 mg QD (n=4)): 1 | TEAE Constipation, grade 1 (DL7 1200 mg QD (n=4)): 1 | TEAE Decreased appetite, grade 2 (DL7 1200 mg QD (n=4)): 1 | TEAE Diarrhoea, grade 1 (DL7 1200 mg QD (n=4)): 2 | TEAE Dysesthesia, grade 1 (DL7 1200 mg QD (n=4)): 1 | TEAE Fatigue, grade 2 (DL7 1200 mg QD (n=4)): 3 | TEAE Gastritis, grade 1 (DL7 1200 mg QD (n=4)): 1 | TEAE Hemoptysis, grade 2 (DL7 1200 mg QD (n=4)): 1 | TEAE Hyperkalaemia, grade 3 (DL7 1200 mg QD (n=4)): 1 | TEAE Ileus, grade 2 (DL7 1200 mg QD (n=4)): 1 | TEAE Influenza like illness, grade 1 (DL7 1200 mg QD (n=4)): 1 | TEAE Lethargy, grade 2 (DL7 1200 mg QD (n=4)): 1 | TEAE Nausea, grade 2 (DL7 1200 mg QD (n=4)): 2 | TEAE Nausea, grade 3 (DL7 1200 mg QD (n=4)): 2 | TEAE Oedema peripheral, grade 2 (DL7 1200 mg QD (n=4)): 1 | TEAE Pain, grade 2 (DL7 1200 mg QD (n=4)): 1 | TEAE Platelet count decreased, grade 1 (DL7 1200 mg QD (n=4)): 1 | TEAE Pyrexia, grade 1 (DL7 1200 mg QD (n=4)): 2 | TEAE Pyrexia, grade 2 (DL7 1200 mg QD (n=4)): 1 | TEAE Vomiting, grade 1 (DL7 1200 mg QD (n=4)): 3 | TRAE Abdominal Pain, > G3 (patients) (DL7 1,200 mg QD, N = 4): 0 | TRAE Abdominal Pain, All grades (patients) (DL7 1,200 mg QD, N = 4): 1 | TRAE Blood Lactic Acid increased, > G3 (patients) (DL7 1,200 mg QD, N = 4): 0 | TRAE Blood Lactic Acid increased, All grades (patients) (DL7 1,200 mg QD, N = 4): 1 | TRAE Constipation, > G3 (patients) (DL7 1,200 mg QD, N = 4): 0 | TRAE Constipation, All grades (patients) (DL7 1,200 mg QD, N = 4): 1 | TRAE Decreased appetite, > G3 (patients) (DL7 1,200 mg QD, N = 4): 0 | TRAE Decreased appetite, All grades (patients) (DL7 1,200 mg QD, N = 4): 1 | TRAE Diarrhoea, > G3 (patients) (DL7 1,200 mg QD, N = 4): 0 | TRAE Diarrhoea, All grades (patients) (DL7 1,200 mg QD, N = 4): 1 | TRAE Fatigue, > G3 (patients) (DL7 1,200 mg QD, N = 4): 0 | TRAE Fatigue, All grades (patients) (DL7 1,200 mg QD, N = 4): 3 | TRAE Insomnia, > G3 (patients) (DL7 1,200 mg QD, N = 4): 0 | TRAE Insomnia, All grades (patients) (DL7 1,200 mg QD, N = 4): 0 | TRAE Nausea, > G3 (patients) (DL7 1,200 mg QD, N = 4): 2 | TRAE Nausea, All grades (patients) (DL7 1,200 mg QD, N = 4): 4 | TRAE Vomiting, > G3 (patients) (DL7 1,200 mg QD, N = 4): 0 | TRAE Vomiting, All grades (patients) (DL7 1,200 mg QD, N = 4): 3 | TEAE Adrenal insufficiency grade 1 (DL7 1200 mg orally daily (n=4)): 0 | TEAE Adrenal insufficiency grade 2 (DL7 1200 mg orally daily (n=4)): 0 | TEAE Adrenal insufficiency grade 3 (DL7 1200 mg orally daily (n=4)): 0 | TEAE Adrenal insufficiency grade 4 (DL7 1200 mg orally daily (n=4)): 0 | TEAE Anaemia grade 1 (DL7 1200 mg orally daily (n=4)): 0 | TEAE Anaemia grade 2 (DL7 1200 mg orally daily (n=4)): 1 | TEAE Anaemia grade 3 (DL7 1200 mg orally daily (n=4)): 1 | TEAE Anaemia grade 4 (DL7 1200 mg orally daily (n=4)): 0 | TEAE Appendicitis perforated grade 1 (DL7 1200 mg orally daily (n=4)): 0 | TEAE Appendicitis perforated grade 2 (DL7 1200 mg orally daily (n=4)): 0 | TEAE Appendicitis perforated grade 3 (DL7 1200 mg orally daily (n=4)): 1 | TEAE Appendicitis perforated grade 4 (DL7 1200 mg orally daily (n=4)): 0 | TEAE Back pain grade 1 (DL7 1200 mg orally daily (n=4)): 0 | TEAE Back pain grade 2 (DL7 1200 mg orally daily (n=4)): 0 | TEAE Back pain grade 3 (DL7 1200 mg orally daily (n=4)): 0 | TEAE Back pain grade 4 (DL7 1200 mg orally daily (n=4)): 0 | TEAE Cystitis grade 1 (DL7 1200 mg orally daily (n=4)): 0 | TEAE Cystitis grade 2 (DL7 1200 mg orally daily (n=4)): 0 | TEAE Cystitis grade 3 (DL7 1200 mg orally daily (n=4)): 0 | TEAE Cystitis grade 4 (DL7 1200 mg orally daily (n=4)): 0 | TEAE Dry skin grade 1 (DL7 1200 mg orally daily (n=4)): 0 | TEAE Dry skin grade 2 (DL7 1200 mg orally daily (n=4)): 1 | TEAE Dry skin grade 3 (DL7 1200 mg orally daily (n=4)): 0 | TEAE Dry skin grade 4 (DL7 1200 mg orally daily (n=4)): 0 | TEAE Flank pain grade 1 (DL7 1200 mg orally daily (n=4)): 0 | TEAE Flank pain grade 2 (DL7 1200 mg orally daily (n=4)): 0 | TEAE Flank pain grade 3 (DL7 1200 mg orally daily (n=4)): 0 | TEAE Flank pain grade 4 (DL7 1200 mg orally daily (n=4)): 0 | TEAE Hypertension grade 1 (DL7 1200 mg orally daily (n=4)): 0 | TEAE Hypertension grade 2 (DL7 1200 mg orally daily (n=4)): 0 | TEAE Hypertension grade 3 (DL7 1200 mg orally daily (n=4)): 0 | TEAE Hypertension grade 4 (DL7 1200 mg orally daily (n=4)): 0 | TEAE Hypotension grade 1 (DL7 1200 mg orally daily (n=4)): 0 | TEAE Hypotension grade 2 (DL7 1200 mg orally daily (n=4)): 0 | TEAE Hypotension grade 3 (DL7 1200 mg orally daily (n=4)): 0 | TEAE Hypotension grade 4 (DL7 1200 mg orally daily (n=4)): 0 | TEAE Insomnia grade 1 (DL7 1200 mg orally daily (n=4)): 0 | TEAE Insomnia grade 2 (DL7 1200 mg orally daily (n=4)): 0 | TEAE Insomnia grade 3 (DL7 1200 mg orally daily (n=4)): 0 | TEAE Insomnia grade 4 (DL7 1200 mg orally daily (n=4)): 0 | TEAE Pain in extremity grade 1 (DL7 1200 mg orally daily (n=4)): 0 | TEAE Pain in extremity grade 2 (DL7 1200 mg orally daily (n=4)): 0 | TEAE Pain in extremity grade 3 (DL7 1200 mg orally daily (n=4)): 0 | TEAE Pain in extremity grade 4 (DL7 1200 mg orally daily (n=4)): 0 | TEAE Pruritus grade 1 (DL7 1200 mg orally daily (n=4)): 1 | TEAE Pruritus grade 2 (DL7 1200 mg orally daily (n=4)): 0 | TEAE Pruritus grade 3 (DL7 1200 mg orally daily (n=4)): 0 | TEAE Pruritus grade 4 (DL7 1200 mg orally daily (n=4)): 0 | TEAE Psychiatric disorders grade 1 (DL7 1200 mg orally daily (n=4)): 0 | TEAE Psychiatric disorders grade 2 (DL7 1200 mg orally daily (n=4)): 0 | TEAE Psychiatric disorders grade 3 (DL7 1200 mg orally daily (n=4)): 0 | TEAE Psychiatric disorders grade 4 (DL7 1200 mg orally daily (n=4)): 0 | TEAE Purpura grade 1 (DL7 1200 mg orally daily (n=4)): 1
